Data from article PMC3141655 (BMC Biochemistry, 2011).
Read-outs that look alike come from different tables or passages of the source.

How the values were obtained:
[1] = target: T1, HiOASS (O-acetylserine sulfhydrylase) (Haemophilus influenzae, UniProt P45040); test: PLP fluorescence titration of ligands with HiOASS; assay type: binding; design: His tag (N); made in house; host or cells: E. coli BL21(DE3), pET28a(+); settings: 20 mM Tris pH 8.0
[2] = target: T1, HiOASS (O-acetylserine sulfhydrylase); settings: for TdS / ΔG / ΔH: 20 mM Tris pH 8.0, 50 mM NaCl
Experimental: (§1) Isothermal titration calorimetry (ITC) experiments were performed using a Nano-ITC (TA-Instruments). OASS was dialyzed at 25°C in 20 mM Tris buffer (pH 8.0) and 50 mM NaCl. Buffer solutions were degassed at room temperature prior to use. […] The heat of dilution for each injection was determined using buffer in the cell. Data obtained from the titration of ligands with OASS were analyzed using either a two-sites binding model (eqn 2)(2) [drawing 2]
(§2) Qi^tot is total heat after the i^th injection, V0 is the volume of calorimetric cell, K1 and K2 are the observed equilibrium constants for each site, and ΔH1 and ΔH2 are the corresponding enthalpy changes. Estimates of Kobs and ΔH were obtained by fitting the experimental data to the model and the best-fit parameters were selected based on the lowest Chi-squared values.

[3] = target: T2, StOASS (O-acetylserine sulfhydrylase) (Salmonella typhimurium, UniProt P0A1E3)
T2 sequence (P0A1E3 whole entry): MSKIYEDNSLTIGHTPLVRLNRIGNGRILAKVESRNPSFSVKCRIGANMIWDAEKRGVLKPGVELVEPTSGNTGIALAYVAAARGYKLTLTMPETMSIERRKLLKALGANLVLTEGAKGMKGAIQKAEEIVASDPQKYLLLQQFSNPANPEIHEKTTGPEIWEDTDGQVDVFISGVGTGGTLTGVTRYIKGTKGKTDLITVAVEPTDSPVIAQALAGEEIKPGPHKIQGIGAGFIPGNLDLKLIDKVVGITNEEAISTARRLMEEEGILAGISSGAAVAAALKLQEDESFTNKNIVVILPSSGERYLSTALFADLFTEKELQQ
Experimental: as §1, §2

[4] = target: T2, StOASS (O-acetylserine sulfhydrylase); test: PLP fluorescence titration of ligands with StOASS; assay type: binding; design: His tag (N); made in house; host or cells: E. coli BL21(DE3), pET28a(+)
Experimental: Titrations of ligands with StOASS were examined by monitoring changes in the active site pyridoxal 5'phosphate (PLP) fluorescence of OASS using a Varian spectrofluorometer. The excitation and emission wavelengths for monitoring PLP signal change upon ligand binding were 412 nm and 507 nm respectively. All experiments were done at 23.0 ± 1°C. Slit widths were set to 5 nm for all experiments and PMT voltage was adjusted to get maximum signal for a given protein concentration. Initial readings of both the sample, Fsamp,0 and buffer, Fbuf,0 were taken, with F0 = Fsamp,0-Fbuf,0 defined as the initial fluorescence of the sample. The sample cuvette was then titrated with aliquots of ligands and mixed, equilibrated for 2-5 minutes before measurement. Data points from five such measurements were averaged to obtain Fave,i. The relative fluorescence quenching upon ligand binding is defined as Qobs,i = (F0-Fobs,i)/F0. All measurements were corrected for dilution, and inner filter effects.
Binding of ligands to OASS was analyzed to obtain the equilibrium binding constant, Kobs = [PL]/[P]*[L], using a single or two independent site binding models (eqn 1)(1) [drawing 1]
Where n, number of binding sites, Qobs, observed fluorescence quenching and Qmax, the maximum fluorescence quenching at saturation.

[5] = from dependence of enthalpy on temperature
[6] = 10°C, 20 mM Tris pH 8.0, 50 mM NaCl
[7] = 15°C, 20 mM Tris pH 8.0, 50 mM NaCl
[8] = 20°C, 20 mM Tris pH 8.0, 50 mM NaCl
[9] = 25°C, 20 mM Tris pH 8.0, 50 mM NaCl
[10] = 30°C, 20 mM Tris pH 8.0, 50 mM NaCl
[11] = 35°C, 20 mM Tris pH 8.0, 50 mM NaCl
[12] = [NaCl] 0.02 M, 20 mM Tris pH 8.0
[13] = [NaCl] 0.05 M, 20 mM Tris pH 8.0
[14] = [NaCl] 0.1 M, 20 mM Tris pH 8.0
[15] = [NaCl] 0.2 M, 20 mM Tris pH 8.0
[16] = [NaCl] 0.5 M, 20 mM Tris pH 8.0

T1 sequence (P45040 whole entry): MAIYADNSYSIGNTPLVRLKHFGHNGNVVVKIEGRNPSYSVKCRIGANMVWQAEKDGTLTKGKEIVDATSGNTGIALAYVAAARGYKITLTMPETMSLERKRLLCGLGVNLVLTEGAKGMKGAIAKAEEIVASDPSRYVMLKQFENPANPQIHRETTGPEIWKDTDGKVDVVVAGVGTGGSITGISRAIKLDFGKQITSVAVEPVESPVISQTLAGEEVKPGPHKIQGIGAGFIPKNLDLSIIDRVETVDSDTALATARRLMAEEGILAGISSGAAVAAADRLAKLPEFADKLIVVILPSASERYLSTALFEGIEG

With N[C@@H](CS)C(=O)O [Cysteine, L-cysteine] the Kobs ([1]; [NaCl] 0.02 M) was 6.6 ± 0.1 × 10^2 M^-1, the “N (number of binding sites)” value ([1]; [NaCl] 0.02 M) was 2 and the Qmax ([1]; [NaCl] 0.02 M) was 3.9. The ΔG ([1]; [NaCl] 0.02 M) was -3.63 ± 0.024 kcal/mol, the Kobs ([1]; [NaCl] 0.05 M) was 5.6 ± 0.1 × 10^2 M^-1 and the “N (number of binding sites)” value ([1]; [NaCl] 0.05 M) was 2. The Qmax ([1]; [NaCl] 0.05 M) was 5.7, the Kobs ([1]; [NaCl] 0.1 M) was 4.5 ± 0.1 × 10^1 M^-1 and the “N (number of binding sites)” value ([1]; [NaCl] 0.1 M) was 2. For the same compound, the Qmax ([1]; [NaCl] 0.1 M) was 5.8, the ΔG ([1]; [NaCl] 0.1 M) was -2.15 ± 0.024 kcal/mol and the Kobs ([1]; [NaCl] 0.2 M) was 3.1 ± 0.1 × 10^1 M^-1. The “N (number of binding sites)” value ([1]; [NaCl] 0.2 M) was 2, the Qmax ([1]; [NaCl] 0.2 M) was 5.8 and the ΔG ([1]; [NaCl] 0.2 M) was -1.91 ± 0.024 kcal/mol. The Kobs ([1]; [NaCl] 0.5 M) was 3.2 ± 0.1 × 10^1 M^-1, the “N (number of binding sites)” value ([1]; [NaCl] 0.5 M) was 2 and the Qmax ([1]; [NaCl] 0.5 M) was 3.1. For the same compound, the ΔG ([1]; [NaCl] 0.5 M) was -1.91 ± 0.024 kcal/mol, the TdS ([2]; 10°C) was 0.884 kcal/mol and the ΔG ([2]; 10°C) was -1.98 ± 0.096 kcal/mol. The ΔH ([2]; 10°C) was -1.1 ± 0.024 kcal/mol, the TdS ([2]; 15°C) was 0.98 kcal/mol and the ΔG ([2]; 15°C) was -2.08 ± 0.048 kcal/mol. For the same compound, the ΔH ([2]; 15°C) was -1.1 ± 0.048 kcal/mol, the TdS ([2]; 20°C) was 1.22 kcal/mol and the ΔG ([2]; 20°C) was -2.27 ± 0.12 kcal/mol. For the same compound, the ΔH ([2]; 20°C) was -1.05 ± 0.048 kcal/mol, the TdS ([2]; 25°C) was 0.98 kcal/mol and the ΔG ([2]; 25°C) was -2.27 ± 0.12 kcal/mol. For the same compound, the ΔH ([2]; 25°C) was -1.29 ± 0.072 kcal/mol, the TdS ([2]; 30°C) was 1.55 kcal/mol and the ΔG ([2]; 30°C) was -2.63 ± 0.072 kcal/mol. For the same compound, the ΔH ([2]; 30°C) was -1.08 ± 0.096 kcal/mol, the “heat capacity change ΔCp” value [2, 5] was -12 JK^-1M^-1 and the TdS [3, 6] was 1.65 kcal/mol. For the same compound, the ΔH [3, 6] was -0.645 ± 0.024 kcal/mol, the ΔG ([3]; 10°C, 20 mM Tris pH 8.0, 50 mM NaCl, two independent sites model) was -2.29 ± 0.096 kcal/mol and the TdS [3, 7] was 1.63 kcal/mol. For the same compound, the ΔG [3, 7] was -2.29 ± 0.072 kcal/mol, the ΔH [3, 7] was -0.669 ± 0.024 kcal/mol and the TΔS ([3]; 20°C) was 3.4 kJ/M. It also gave a ΔH ([3]; 20°C) of -6.4 ± 0.1 kJ/M, a TdS [3, 8] of 0.813 kcal/mol and a ΔG [3, 8] of -2.34 ± 0.024 kcal/mol. For the same compound, the ΔH [3, 8] was -1.53 ± 0.024 kcal/mol, the TdS [3, 9] was 1.12 kcal/mol and the ΔG [3, 9] was -2.53 ± 0.024 kcal/mol. For the same compound, the ΔH [3, 9] was -1.41 ± 0.024 kcal/mol, the TdS [3, 10] was 1.39 kcal/mol and the ΔG [3, 10] was -2.44 ± 0.048 kcal/mol. The ΔH [3, 10] was -1.05 ± 0.048 kcal/mol, the TdS [3, 11] was 1.34 kcal/mol and the ΔG [3, 11] was -2.63 ± 0.048 kcal/mol. For the same compound, the ΔH [3, 11] was -1.29 ± 0.072 kcal/mol, the “net heat capacity change ΔCp” value [3, 5] was -130 JK^-1M^-1 and the “dlogK/dlog [NaCl]” value ([4]; [NaCl] 0.02-0.5 M) was ~ -0.21 ± 0.1. The “N (number of binding sites)” value [4, 12] was 2, the “Qmax (maximum fluorescence quenching at saturation)” value [4, 12] was 3.8 and the ΔG [4, 12] was -3.59 ± 0.024 kcal/mol. The Kobs ([4]; [NaCl] 0.02 M, 20 mM Tris pH 8.0, similar for each of two sites) was 6.0 ± 0.1 × 10^2 M^-1, the Kobs ([4]; [NaCl] 0.02 M, 20 mM Tris pH 8.0, similar for each of two sites, listed as cysteine) was 600 M⁻¹ and the Kobs [4, 13] was 5.6 ± 0.1 × 10^2 M^-1. For the same compound, the “N (number of binding sites)” value [4, 13] was 2, the Qmax [4, 13] was 4.6 and the ΔG [4, 13] was -3.56 ± 0.024 kcal/mol. The Kobs [4, 14] was 4.5 ± 0.1 × 10^2 M^-1, the “N (number of binding sites)” value [4, 14] was 2 and the Qmax [4, 14] was 4.6. The ΔG [4, 14] was -3.42 ± 0.024 kcal/mol, the Kobs [4, 15] was 3.7 ± 0.1 × 10^2 M^-1 and the “N (number of binding sites)” value [4, 15] was 2. The Qmax [4, 15] was 4.5, the ΔG [4, 15] was -3.32 ± 0.024 kcal/mol and the Kobs [4, 16] was 2.6 ± 0.1 × 10^2 M^-1. The “N (number of binding sites)” value [4, 16] was 2, the Qmax [4, 16] was 4.7 and the ΔG [4, 16] was -3.11 ± 0.024 kcal/mol. It also gave a Kd ([4]; from K1,obs and K2,obs of the PLP fluorescence titration, read-out: Kd) of about 1700 µM.
With CC[C@H](C)[C@H](N)C(=O)O [isoleucine, L-isoleucine] the “binding to OASS when presented as amino acid” value ([4]; similar experimental conditions as cysteine/methionine titrations) was “does not bind OASS”.
